Some results are limits rather than exact numbers.

Assay [1] concerns the target T1, Bromodomain-containing protein 4 (Homo sapiens, UniProt O60885). The assay can be described thus: Inhibition of BRD4 (unknown origin) by biotinylated-JQ1 based AlphaScreen BRD binding assay. Background: Bead proximity is the source of the signal in Alpha formats.
Assay [2] is described as follows: Cytotoxicity against BRD4-NUT-expressing human NMC-797 cells assessed as reduction in cell viability after 3 days by ATPlite assay. The assay is classed as functional, cell-based. As to conditions: NMC-797, 72 h.
In assay [3] the target is T1, Bromodomain-containing protein 4. Description: Binding affinity to BRD4 (unknown origin) by isothermal titration […]. On the technique in general: Isothermal titration calorimetry measures the heat released or taken up as one component is titrated into another.

`Cc1noc(C)c1-c1ccc(C=O)cc1`: the IC50 (usually the concentration that inhibits the measured activity by half) in assay [1] is 1.7 µM.

`CCOC(=O)C(C)N(Cc1ccc(-c2c(C)noc2C)cc1)C(=O)c1ccc(OC)cc1` (centres undefined) gave an IC50 in assay [1] of 16.3 µM.

`CCOC(=O)[C@]1(C)NC(c2ccc(-c3c(C)noc3C)cc2)C2C(=O)N(CC)C(=O)C21` (some centres undefined): the EC50 (usually the concentration needed to bring the measured effect to its halfway point) in assay [2] is 9.42 µM.

As to `CCCCN1C(=O)c2ccccc2NC(=O)C1c1ccc(-c2c(C)noc2C)c(OC)c1` (centres undefined), the EC50 in assay [2] stood at 9.91 µM.

As for `Cc1noc(C)c1-c1cccc(C2Nc3ccccc3NC3=C2C(=O)OC3)c1` (centres undefined), the EC50 in assay [2] is more than 100 µM.

With `COc1ccc(-c2cc(-c3ccc(-c4c(C)noc4C)cc3)nc(-c3ccccc3)n2)cc1`, in assay [2], the EC50 was more than 100 µM. In addition, in assay [1], the IC50 is 69.9 µM.

For the compound `Cc1ccc2nc(-c3ccc(-c4c(C)noc4C)cc3)c(NCc3ccccc3)n2c1`, the IC50 in assay [1] was more than 100 µM.

In the case of `Cc1noc(C)c1-c1ccc(-c2nc3ccc(Cl)cn3c2NCc2ccccc2)cc1`, the EC50 in assay [2] was 18.4 µM.

With `Cc1noc(C)c1-c1ccc(-c2nc3cnccn3c2NCc2ccccc2)cc1`, the EC50 in assay [2] amounted to 49.1 µM.

As to `Cc1noc(C)c1-c1ccc(-c2nc3ccccn3c2NC2CCCCC2)cc1`, the EC50 in assay [2] was found to be 5.07 µM.

As to `COc1ccc(Nc2c(-c3ccc(-c4c(C)noc4C)cc3)nc3ccccn23)cc1`, the concentration for a half-maximal effect (EC50) in assay [2] was found to be 7.36 µM.

Regarding `COc1ccc(Nc2c(-c3ccc(-c4c(C)noc4C)cc3)nc3ccc(Cl)cn23)cc1`, the EC50 in assay [2] stood at 20.7 µM.

For the compound `COc1ccc(Nc2c(-c3ccc(-c4c(C)noc4C)cc3)nc3cc(OC)ncn23)cc1`, the EC50 in assay [2] amounted to 11.8 µM.

In assay [1], `COc1ccc(Nc2c(-c3ccc(-c4c(C)noc4C)cc3)nn3ccncc23)cc1` showed an IC50 of 7.86 µM.

In the case of `Cc1noc(C)c1-c1ccc(-c2nc3ccccn3c2NC(C)(C)C)cc1`, in assay [2], the EC50 was found to be 2.04 µM.

As for `Cc1noc(C)c1-c1ccc(-c2nc3cnccn3c2NC(C)(C)C)cc1`, the EC50 in assay [2] was determined as 0.724 µM. For the same compound, the IC50 in assay [1] came to 0.637 µM. Moreover, binding in assay [3] was characterised by a dissociation constant (Kd) of 0.55 µM.

As for `Cc1noc(C)c1-c1ccc(-c2nc3ccc(Cl)cn3c2NC(C)(C)C)cc1`, the concentration for a half-maximal effect (EC50) in assay [2] came out at 2.19 µM.

Turning to `Cc1noc(C)c1-c1ccc(-c2nc3cnccn3c2NC(C)C)cc1`, the EC50 in assay [2] was 0.494 µM.

On to `Cc1noc(C)c1-c1ccc(-c2nc3cnccn3c2NC(C)(C)C)cn1`, for which, in assay [2], the EC50 is more than 100 µM.

In the case of `Cc1noc(C)c1-c1ccc(-c2nc3cnccn3c2NC(C)(C)C)nc1`, the EC50 in assay [2] was found to be 8.29 µM.

In the case of `Cc1noc(C)c1-c1ccc(-c2nc3cnccn3c2NC(C)(C)C)cc1F`, the EC50 in assay [2] was 12.8 µM.

The values above are taken from ChEMBL document CHEMBL3351605, “Biased multicomponent reactions to develop novel bromodomain inhibitors” (J Med Chem, 2014).
